Data from US10376520B2, “Methods for the treatment of cardiovascular disorders” (Galapagos NV, priority 2015, dated 2019).

Assays:
Format in all cases: in vivo, human
[1] = system: Japanese and Caucasian healthy subjects; experiment: [HDL] determination, Study 3 (healthy volunteers); conditions: 200 mg q.d.
Method: (§1) Randomized, double-blind, placebo-controlled study for the assessment of safety, tolerability, pharmacokinetics, and pharmacodynamics, of multiple oral doses of Compound 1 (dosed as a [Compound 1:HCl:3H2O]) in Japanese and Caucasian healthy subjects.
(§2) Randomized, double-blind, placebo-controlled, single center, sequential design study.
(§3) Compound 1 (dosed as a [Compound 1:HCl:3H2O]) is administered for 10 days as oral film-coated tablet (25 and 100 mg and matching placebos). Placebo are provided as a matching tablet.
(§4) The study drug is ingested with 240 mL water after a standardized breakfast on Days 2-9. On PK days (Day 1 and Day 10) the study drug is administered in a fasted state (subjects will receive lunch 4 h after dosing on Day 1 and Day 10).
(§5) 10 Japanese subjects (6 active, 4 placebo) and 10 Caucasian subjects (6 active, 4 placebo) will receive once daily an oral dose of 200 mg Compound 1 (dosed as a [Compound 1:HCl:3H2O]) or matching placebo as two tablets of 100 mg or matching placebo for 10 days. For practical reasons, these subjects may be split over separate groups, each group consisting of an equal number of Japanese and Caucasian Compound 1 (dosed as a [Compound 1:HCl:3H2O]) treated subjects and Japanese and Caucasian placebo subjects.
This assay relies on a homogeneous enzymatic colorimetric test. In the presence of magnesium ions, dextran sulfate selectively forms water-soluble complexes with LDL, VLDL and chylomicrons which are resistant to PEG-modified enzymes.
The cholesterol concentration of [HDL]-cholesterol is determined enzymatically by cholesterol esterase and cholesterol oxidase coupled with PEG to the amino groups (approx. 40%).
In the presence of peroxidase, the hydrogen peroxide generated reacts with 4-amino-antipyrine and Sodium N-(2-hydroxy-3-sulfopropyl)-3,5-dimethoxyaniline (HSDA) to form a purple-blue dye. The color intensity of this dye is directly proportional to the cholesterol concentration and is measured photometrically.
Human serum and plasma samples [HDL] determination was done on a Roche/Hitachi Cobas c 701/702 system which automatically calculate the analyte concentration of each sample. Samples containing precipitates are centrifuged before performing the assay.

[2] = system: Japanese and Caucasian healthy subjects; experiment: LDL determination, Study 3 (healthy volunteers); conditions: for [LDL] % Mean % variation vs baseline 10 days: 200 mg q.d.; for [LDL] levels: Study 3
Method: as §1, §2, §3, §4, §5
The determination of [LDL]-cholesterol is made using an automated method taking advantage of the selective micellary solubilization of [LDL]-cholesterol by a nonionic detergent and the interaction of a sugar compound and lipoproteins (VLDL and chylomicrons).
When a detergent is included in the enzymatic method for cholesterol determination (cholesterol esterase, cholesterol oxidase coupling reaction), the relative reactivities of cholesterol in the lipoprotein fractions increase in this order: [HDL]<chylomicrons <VLDL <[LDL]. In the presence of Mg^2+, a sugar compound markedly reduces the enzymatic reaction of the cholesterol measurement in VLDL and chylomicrons. The combination of a sugar compound with detergent enables the selective determination of [LDL]-cholesterol in serum. (Friedewald et al., 1972; Rifai et al., 1992)
Homogeneous enzymatic colorimetric assay.
In the presence of peroxidase, the hydrogen peroxide generated reacts with 4-aminoantipyrine and Sodium N-(2-hydroxy-3-sulfopropyl)-3,5-dimethoxyaniline (HSDA) to form a purple-blue dye.
The color intensity of this dye is directly proportional to the cholesterol concentration and is measured photometrically.
Human serum and plasma samples [LDL] determination was done on a Roche/Hitachi Cobas c 701/702 system which automatically calculate the analyte concentration of each sample. Samples containing precipitates are centrifuged before performing the assay.

RA patients = experiment: Lipoprotein A (Lp(a)) level (Selectra autoanalyzer), Study 4; conditions: for LpA level, 4 weeks CFB: 4 weeks change from baseline
Method: Randomized double-blind, placebo-controlled add on study in subjects with active RA who have an inadequate response to MTX monotherapy, in combination with methotrexate, administered for 4 weeks in the treatment of subjects with active rheumatoid arthritis who have an inadequate response to methotrexate alone.
Compound 1 (dosed as a [Compound 1:HCl:3H2O]) capsules administered orally in 30 mg, 75 mg, 150 mg, or 300 mg doses per day for 4 weeks.
Lipoprotein A (Lp(a)) were measured on the Selectra autoanalyzer (Sopachem BV, 44-RI Straat 33, 4051 AP Ochten, The Netherlands). All assays were commercially available from DiaSys Diagnostic Systems GmbH, Alte Strasse 9, 65558 Holzheim, Germany.

[3] = system: Japanese and Caucasian healthy subjects; experiment: Total cholesterol determination, Study 3 (healthy volunteers); conditions: for [Total cholesterol] % Mean % variation vs baseline 10 days: 200 mg q.d.; for [Total cholesterol] levels: Study 3
Method: as §1, §2, §3, §4, §5
This method is based on the determination of Δ^4 cholestenone after enzymatic cleavage of the cholesterol ester by cholesterol esterase, conversion of cholesterol by cholesterol oxidase, and subsequent measurement by the Trinder reaction of the hydrogen peroxide formed (Allain et al., 1974).
Cholesterol esters are cleaved by the action of cholesterol esterase to yield free cholesterol and fatty acids. Cholesterol oxidase then catalyzes the oxidation of cholesterol to cholest-4-en-3-one and hydrogen peroxide. In the presence of peroxidase, the hydrogen peroxide formed effects the oxidative coupling of phenol and 4-aminophenazone to form a red quinone-imine dye. The color intensity of the dye formed is directly proportional to the cholesterol concentration. It is determined by measuring the increase in absorbance.
Human serum and plasma samples cholesterol determination was done on a Roche/Hitachi Cobas c 701/702 system which automatically calculate the analyte concentration of each sample.

[4] = Caucasian 200 mg q.d. for 10 days, day 17
[5] = Japanese 200 mg q.d. for 10 days, day 17

O=C(Nc1nc2cccc(-c3ccc(CN4CCS(=O)(=O)CC4)cc3)n2n1)C1CC1 [Compound 1, cyclopropanecarboxylic acid {5-[4-(1,1-dioxo-thiomorpholin-4-ylmethyl)-phenyl]-[1,2,4]triazolo[1,5-a]pyridin-2yl}-amide]
[HDL] % Mean % variation vs baseline 10 days ([1]; Caucasian): 6%
[HDL] levels ([1]; Caucasian, day 0): 1.5 mmol/L
[HDL] levels ([1]; Caucasian, day 5): 1.5 mmol/L
[HDL] levels ([1]; Caucasian, day 10): 1.6 mmol/L
[HDL] levels ([1]; Caucasian, day 17): 1.6 mmol/L
[HDL] % Mean % variation vs baseline 10 days ([1]; Japanese): 15.6%
[HDL] levels ([1]; Japanese, day 0): 1.3 mmol/L
[HDL] levels ([1]; Japanese, day 5): 1.3 mmol/L
[HDL] levels ([1]; Japanese, day 10): 1.5 mmol/L
[HDL] levels ([1]; Japanese, day 17): 1.4 mmol/L
[LDL] % Mean % variation vs baseline 10 days ([2]; Caucasian): −1.3%
[LDL] % Mean % variation vs baseline 10 days ([2]; Japanese): −8.9%
[LDL] levels [2, 4]: 2.5 mmol/L
[LDL] levels ([2]; Caucasian 200 mg q.d., day 0): 2.6 mmol/L
[LDL] levels ([2]; Caucasian 200 mg q.d., day 5): 2.6 mmol/L
[LDL] levels ([2]; Caucasian 200 mg q.d., day 10): 2.4 mmol/L
[LDL] levels [2, 5]: 2.7 mmol/L
[LDL] levels ([2]; Japanese 200 mg q.d., day 0): 2.7 mmol/L
[LDL] levels ([2]; Japanese 200 mg q.d., day 5): 2.5 mmol/L
[LDL] levels ([2]; Japanese 200 mg q.d., day 10): 2.5 mmol/L
LpA level, 4 weeks CFB (RA patients; 30 mg q.d.): 3.9%
LpA level, Baseline (RA patients; 30 mg q.d.): 22.5 mg/dL
LpA level, week 4 (RA patients; 30 mg q.d.): 25.9 mg/dL
LpA level, 4 weeks CFB (RA patients; 75 mg q.d.): −3.7%
LpA level, Baseline (RA patients; 75 mg q.d.): 28.5 mg/dL
LpA level, week 4 (RA patients; 75 mg q.d.): 23.6 mg/dL
LpA level, 4 weeks CFB (RA patients; 150 mg q.d.): 7.0%
LpA level, Baseline (RA patients; 150 mg q.d.): 29.5 mg/dL
LpA level, week 4 (RA patients; 150 mg q.d.): 35 mg/dL
LpA level, 4 weeks CFB (RA patients; 300 mg q.d.): 4.4%
LpA level, Baseline (RA patients; 300 mg q.d.): 13.4 mg/dL
LpA level, week 4 (RA patients; 300 mg q.d.): 10.1 mg/dL
[Total cholesterol] % Mean % variation vs baseline 10 days ([3]; Caucasian): −2.6%
[Total cholesterol] % Mean % variation vs baseline 10 days ([3]; Japanese): −0.4%
[Total cholesterol] levels [3, 4]: 4.57 mmol/L
[Total cholesterol] levels ([3]; Caucasian 200 mg q.d., day 0): 4.77 mmol/L
[Total cholesterol] levels ([3]; Caucasian 200 mg q.d., day 5): 4.5 mmol/L
[Total cholesterol] levels ([3]; Caucasian 200 mg q.d., day 10): 4.53 mmol/L
[Total cholesterol] levels [3, 5]: 4.52 mmol/L
[Total cholesterol] levels ([3]; Japanese 200 mg q.d., day 0): 4.47 mmol/L
[Total cholesterol] levels ([3]; Japanese 200 mg q.d., day 5): 4.18 mmol/L
[Total cholesterol] levels ([3]; Japanese 200 mg q.d., day 10): 4.45 mmol/L
